Source: patent US4859782A (priority 1987, dated 1989)
Converted amounts (≈) assume the structure as drawn. Like-named read-outs stand apart in the source and are kept apart here.

How the values were obtained:
CV-1 cells = details: for VSV cyt (cytotoxicity): VSV-infected CV-1 cells
Penicillium atrovenetum = experiment: microbe, parasite or virus in culture; assay type: cell-based; details: read-out: Antifungal activity, Pa: diameter of the zone of growth inhibition
Candida albicans [1] = experiment: microbe, parasite or virus in culture; details: read-out: Antifungal activity, […]
[2] = system: herpes simplex type 1 (HSV-1); assay type: cell-based
[3] = system: vesicular stomatitis virus (VSV); assay type: cell-based; details: CV-1 cells, 8 μg/well
Saccharomyces cerevisiae = experiment: microbe, parasite or virus in culture; details: read-out: Antifungal activity, […]
Candida albicans [4] = experiment: microbe, parasite or virus in culture; details: read-out: Ca MIC

COC1CC(C)OC(CCC(C)C(O)C(C)C2OC(=O)C(C)=CCC(O)CC3C=CCC(CC(OC)C(C)C(O)CC(O)C(C)C(C(C)C(O)C(C)CCC4CC(OC)CC(C)O4)OC(=O)C(C)=CCC(O)CC4C=CCC(CC(OC)C(C)C(O)CC(O)C2C)O4)O3)C1 (stereo not drawn) [misakinolide, Misakinolide]
HSV-1 cyt (cytotoxicity) (CV-1 cells): 0 | VSV cyt (cytotoxicity) (CV-1 cells; 4 μg/well): 0 | VSV cyt (cytotoxicity) (CV-1 cells; 8 μg/well): 0 | zone of inhibition at 5 µg/disc (Penicillium atrovenetum): 10 mm | zone of inhibition at 5 µg/disc (Candida albicans [1]): 10 mm | HSV-1 av (antiviral activity) [2]: ++ and + | VSV av (antiviral activity) [3]: + | zone of inhibition at 5 µg/disc (Saccharomyces cerevisiae): 12 mm | MIC (Candida albicans [4]): 5 µg/mL (≈ 3.74 µM)
